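Results reflect a 48-hour exposure of cells in 96-well plates to compound at five concentrations. TGI marks complete inhibition of growth.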

The subject of one assay is 786-0 renal. Description: NCI anticancer screen, dose series, 48 h.
`O=C1CS(=O)(=O)C(c2cccc(Oc3ccccc3)c2)N1c1ccc(Cl)cc1` (stereo not given) displayed a TGI of 36.5 µM.

`Clc1ccc(CCN(CCc2ccc(Cl)c(Cl)c2)CCN2CCCC2)cc1Cl`: the TGI stood at 3.14 µM.

Compound `C=C(CCOC)CCC1CCCCC(CN(C)C)C1=O` (stereo not given) displayed a TGI of over 100 µM.

In the case of `ONC1=Nc2cc(Cl)ccc2C(=S)N2CSCC12` (stereo not given), the TGI was over 100 µM.

`COc1ccc(/C=C2\N=C(N3CCCCC3)NC2=O)cc1` yielded a TGI of over 100 µM.

`CCCCC1(NN=C2CCCCC2)C(=O)N(c2ccccc2)N(c2ccccc2)C1=O` displayed a TGI of over 100 µM.

Regarding `Cc1nc2ccc(Br)cc2c(=O)n1-c1nnc(C(C)(C)C)s1`, the TGI was over 10 µM.

Turning to `COc1cc2c(cc1O)c(O)cc1c3cc(OC)c(OC)cc3c[n+](C)c21`, the TGI is over 100 µM.

With `NC(N)=NS(=O)(=O)c1ccc(NNc2c3ccccc3nc3ccccc23)cc1`, the TGI is 25.5 µM.

In turn, `COc1cc2c(cc1OCCCCCCCCCCN1C(=O)c3cccc4cccc(c34)C1=O)N=C[C@@H]1CCCN1C2=O` displayed a TGI of 55.9 µM.

As to `O=C(NC1=C(Cl)C(=O)c2ccccc2C1=O)c1ccccc1`, the TGI is over 100 µM.

`COc1ccc(Cn2c(=O)c(OC)c(C)c3cc4ccccc4cc32)cc1` gave a TGI of over 100 µM.

Regarding `COC(=O)C1Cc2cc3c(cc2C1=O)CCC3` (stereo not given), the TGI was over 100 µM.

In turn, `O=C1/C(=C\c2ccc([N+](=O)[O-])cc2)N(S(=O)(=O)c2ccccc2)c2ncccc21` registered a TGI of 37.1 µM.

In turn, `CC(=O)SCCC(NC(=S)Nc1ccccc1)P(=O)(Oc1ccccc1)Oc1ccccc1` (stereo not given) had a TGI of over 100 µM.

`Nc1ccccc1CCN1CCN(CCCc2ccccc2)CC1` displayed a TGI of over 100 µM.

`O=C1NC(=S)N/C1=C\c1cccs1` registered a TGI of over 100 µM.

In turn, `CSc1c(C(=O)Nc2ccccc2)c(N)n(N)c(=O)c1C#N` displayed a TGI of over 100 µM.

Regarding `CC(C)(C)C1CCC(=O)/C(=C/CC2CC(=O)N(c3ccccc3)C(=O)C2)C1` (stereo not given), the TGI was found to be 38.3 µM.

`CC12C=CC(C)(C3C(=O)C4C(C(=O)C31)C1(C)C=CC4(C)S1=O)S2=O` (stereo not given) registered a TGI of over 100 µM.

Another assay deals with A498 renal. Nature of the assay: NCI anticancer screen, dose series, 48 h.
Regarding `Clc1ccc(CCN(CCc2ccc(Cl)c(Cl)c2)CCN2CCCC2)cc1Cl`, the TGI is 3.23 µM.

Consider `C=C(CCOC)CCC1CCCCC(CN(C)C)C1=O` (stereo not given), for which the TGI is over 100 µM.

Consider `ONC1=Nc2cc(Cl)ccc2C(=S)N2CSCC12` (stereo not given), for which the TGI is over 100 µM.

The compound `COc1cc2c(cc1O)c(O)cc1c3cc(OC)c(OC)cc3c[n+](C)c21` displayed a TGI of over 100 µM.

Consider `COC(=O)C1Cc2cc3c(cc2C1=O)CCC3` (stereo not given), for which the TGI is over 100 µM.

In turn, `Nc1ccccc1CCN1CCN(CCCc2ccccc2)CC1` returned a TGI of over 100 µM.

In the case of `CSc1c(C(=O)Nc2ccccc2)c(N)n(N)c(=O)c1C#N`, the TGI was over 100 µM.

Regarding `CC(C)(C)C1CCC(=O)/C(=C/CC2CC(=O)N(c3ccccc3)C(=O)C2)C1` (stereo not given), the TGI worked out at 61.2 µM.

The test system of the next assay is ACHN renal. Nature of the assay: NCI anticancer screen, dose series, 48 h.
`O=C1CS(=O)(=O)C(c2cccc(Oc3ccccc3)c2)N1c1ccc(Cl)cc1` (stereo not given) returned a TGI of 60.5 µM.

The compound `Clc1ccc(CCN(CCc2ccc(Cl)c(Cl)c2)CCN2CCCC2)cc1Cl` came in with a TGI of 3.2 µM.

`C=C(CCOC)CCC1CCCCC(CN(C)C)C1=O` (stereo not given) returned a TGI of over 100 µM.

The compound `ONC1=Nc2cc(Cl)ccc2C(=S)N2CSCC12` (stereo not given) returned a TGI of over 100 µM.

The compound `COc1ccc(/C=C2\N=C(N3CCCCC3)NC2=O)cc1` yielded a TGI of over 100 µM.

As to `CCCCC1(NN=C2CCCCC2)C(=O)N(c2ccccc2)N(c2ccccc2)C1=O`, the TGI was over 100 µM.

In the case of `Cc1nc2ccc(Br)cc2c(=O)n1-c1nnc(C(C)(C)C)s1`, the TGI was over 10 µM.

Compound `COc1cc2c(cc1O)c(O)cc1c3cc(OC)c(OC)cc3c[n+](C)c21` displayed a TGI of over 100 µM.

The compound `NC(N)=NS(=O)(=O)c1ccc(NNc2c3ccccc3nc3ccccc23)cc1` came in with a TGI of 23.1 µM.

As to `COc1cc2c(cc1OCCCCCCCCCCN1C(=O)c3cccc4cccc(c34)C1=O)N=C[C@@H]1CCCN1C2=O`, the TGI amounted to 30 µM.

In turn, `O=C(NC1=C(Cl)C(=O)c2ccccc2C1=O)c1ccccc1` registered a TGI of 40 µM.

As to `COc1ccc(Cn2c(=O)c(OC)c(C)c3cc4ccccc4cc32)cc1`, the TGI is over 100 µM.

As for `COC(=O)C1Cc2cc3c(cc2C1=O)CCC3` (stereo not given), the TGI is over 100 µM.

For the compound `O=C1/C(=C\c2ccc([N+](=O)[O-])cc2)N(S(=O)(=O)c2ccccc2)c2ncccc21`, the TGI came to 31.4 µM.

`CC(=O)SCCC(NC(=S)Nc1ccccc1)P(=O)(Oc1ccccc1)Oc1ccccc1` (stereo not given): the TGI was over 100 µM.

For `Nc1ccccc1CCN1CCN(CCCc2ccccc2)CC1`, the TGI was over 100 µM.

In the case of `CC(C)(C)C1CCC(=O)/C(=C/CC2CC(=O)N(c3ccccc3)C(=O)C2)C1` (stereo not given), the TGI turned out to be 42.9 µM.

As to `CC12C=CC(C)(C3C(=O)C4C(C(=O)C31)C1(C)C=CC4(C)S1=O)S2=O` (stereo not given), the TGI is over 100 µM.

In another assay the test system is CAKI-1 renal. Nature of the assay: NCI anticancer screen, dose series, 48 h.
For the compound `O=C1CS(=O)(=O)C(c2cccc(Oc3ccccc3)c2)N1c1ccc(Cl)cc1` (stereo not given), the TGI was 64.8 µM.

`Clc1ccc(CCN(CCc2ccc(Cl)c(Cl)c2)CCN2CCCC2)cc1Cl` had a TGI of 3.02 µM.

`C=C(CCOC)CCC1CCCCC(CN(C)C)C1=O` (stereo not given): the TGI was over 100 µM.

In turn, `ONC1=Nc2cc(Cl)ccc2C(=S)N2CSCC12` (stereo not given) displayed a TGI of over 100 µM.

`COc1ccc(/C=C2\N=C(N3CCCCC3)NC2=O)cc1` gave a TGI of over 100 µM.

`CCCCC1(NN=C2CCCCC2)C(=O)N(c2ccccc2)N(c2ccccc2)C1=O` came in with a TGI of over 100 µM.

For the compound `Cc1nc2ccc(Br)cc2c(=O)n1-c1nnc(C(C)(C)C)s1`, the TGI is over 10 µM.

The compound `COc1cc2c(cc1O)c(O)cc1c3cc(OC)c(OC)cc3c[n+](C)c21` came in with a TGI of over 100 µM.

Regarding `NC(N)=NS(=O)(=O)c1ccc(NNc2c3ccccc3nc3ccccc23)cc1`, the TGI is 55.1 µM.

For the compound `COc1cc2c(cc1OCCCCCCCCCCN1C(=O)c3cccc4cccc(c34)C1=O)N=C[C@@H]1CCCN1C2=O`, the TGI was determined as 28.9 µM.

`COc1ccc(Cn2c(=O)c(OC)c(C)c3cc4ccccc4cc32)cc1`: the TGI was over 100 µM.

`COC(=O)C1Cc2cc3c(cc2C1=O)CCC3` (stereo not given) displayed a TGI of over 100 µM.

The compound `O=C1/C(=C\c2ccc([N+](=O)[O-])cc2)N(S(=O)(=O)c2ccccc2)c2ncccc21` registered a TGI of 20.9 µM.

Take `CC(=O)SCCC(NC(=S)Nc1ccccc1)P(=O)(Oc1ccccc1)Oc1ccccc1` (stereo not given): the TGI was over 100 µM.

The compound `Nc1ccccc1CCN1CCN(CCCc2ccccc2)CC1` came in with a TGI of over 100 µM.

`O=C1NC(=S)N/C1=C\c1cccs1` registered a TGI of over 100 µM.

Regarding `CSc1c(C(=O)Nc2ccccc2)c(N)n(N)c(=O)c1C#N`, the TGI was over 100 µM.

As for `CC(C)(C)C1CCC(=O)/C(=C/CC2CC(=O)N(c3ccccc3)C(=O)C2)C1` (stereo not given), the TGI turned out to be 41.6 µM.

In turn, `CC12C=CC(C)(C3C(=O)C4C(C(=O)C31)C1(C)C=CC4(C)S1=O)S2=O` (stereo not given) had a TGI of over 100 µM.

The next assay has as its system HCT-15 colon. Description: NCI anticancer screen, dose series, 48 h.
As for `O=C1CS(=O)(=O)C(c2cccc(Oc3ccccc3)c2)N1c1ccc(Cl)cc1` (stereo not given), the TGI was over 100 µM.

`Clc1ccc(CCN(CCc2ccc(Cl)c(Cl)c2)CCN2CCCC2)cc1Cl` showed a TGI of 3.28 µM.

As for `C=C(CCOC)CCC1CCCCC(CN(C)C)C1=O` (stereo not given), the TGI is over 100 µM.

`ONC1=Nc2cc(Cl)ccc2C(=S)N2CSCC12` (stereo not given) yielded a TGI of over 100 µM.

As to `COc1ccc(/C=C2\N=C(N3CCCCC3)NC2=O)cc1`, the TGI is over 100 µM.
